% of control and % of inhibition data for four molecules are collected here from ChEMBL document CHEMBL5465560, “Selectivity Literature for EUbOPEN Chemogenomic Library” (2024).

Each structure is given as a SMILES string.

The target of assay [1] is T1, Serine/threonine-protein kinase 3 (Homo sapiens) (UniProt Q13188).
T1 sequence (whole entry): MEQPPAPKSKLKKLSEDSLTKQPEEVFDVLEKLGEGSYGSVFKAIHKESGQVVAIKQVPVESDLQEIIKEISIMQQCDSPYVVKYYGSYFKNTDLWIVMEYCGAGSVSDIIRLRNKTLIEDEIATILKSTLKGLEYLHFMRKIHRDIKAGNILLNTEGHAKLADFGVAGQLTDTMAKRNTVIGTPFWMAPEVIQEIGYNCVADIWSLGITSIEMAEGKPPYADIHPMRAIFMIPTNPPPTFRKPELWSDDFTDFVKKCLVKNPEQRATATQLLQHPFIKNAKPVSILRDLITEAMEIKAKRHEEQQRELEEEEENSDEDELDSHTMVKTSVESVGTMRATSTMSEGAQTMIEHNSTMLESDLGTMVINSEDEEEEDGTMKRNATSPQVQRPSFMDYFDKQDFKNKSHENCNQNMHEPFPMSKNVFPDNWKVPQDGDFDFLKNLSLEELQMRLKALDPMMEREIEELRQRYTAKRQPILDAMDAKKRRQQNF
In words: Selectivity interaction (Ambit KINOMEscan and KiNATiv profiling in Jurkat cells) EUB0000090b STK3. The format is cell-based. The following applies: at 1 µM.

The target in assay [2] is T2, Tyrosine-protein kinase receptor TYRO3 (Homo sapiens) (UniProt Q06418).
T2 sequence (whole entry): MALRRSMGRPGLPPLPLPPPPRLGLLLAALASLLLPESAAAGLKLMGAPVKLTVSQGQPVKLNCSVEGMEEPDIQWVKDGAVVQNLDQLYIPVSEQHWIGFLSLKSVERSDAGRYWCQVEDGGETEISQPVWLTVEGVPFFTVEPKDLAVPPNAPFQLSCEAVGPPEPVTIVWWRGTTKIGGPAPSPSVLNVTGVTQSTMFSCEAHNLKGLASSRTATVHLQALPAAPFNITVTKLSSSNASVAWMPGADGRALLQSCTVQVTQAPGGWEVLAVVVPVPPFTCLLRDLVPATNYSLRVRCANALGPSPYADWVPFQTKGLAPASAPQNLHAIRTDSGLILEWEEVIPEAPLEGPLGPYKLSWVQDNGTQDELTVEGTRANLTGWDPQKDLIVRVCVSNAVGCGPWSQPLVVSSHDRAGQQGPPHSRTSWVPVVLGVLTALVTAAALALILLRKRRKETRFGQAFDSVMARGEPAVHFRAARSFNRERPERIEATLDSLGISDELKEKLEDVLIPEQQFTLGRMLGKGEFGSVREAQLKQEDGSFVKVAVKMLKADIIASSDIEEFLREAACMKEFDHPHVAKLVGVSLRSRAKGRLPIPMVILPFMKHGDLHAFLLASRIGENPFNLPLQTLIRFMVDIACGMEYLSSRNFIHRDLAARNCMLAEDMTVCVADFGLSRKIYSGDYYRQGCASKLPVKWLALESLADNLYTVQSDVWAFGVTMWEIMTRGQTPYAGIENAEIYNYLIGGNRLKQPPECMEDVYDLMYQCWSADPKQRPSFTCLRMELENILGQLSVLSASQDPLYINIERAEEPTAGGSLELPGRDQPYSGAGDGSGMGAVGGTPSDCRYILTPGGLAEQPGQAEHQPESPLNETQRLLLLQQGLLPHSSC
Briefly: Selectivity interaction (KinomeScan (DiscoverX)) EUB0000695a TYRO3. The following applies: at 100 nM.

Assay [3] deals with T3, Ephrin type-B receptor 2 (Homo sapiens) (UniProt P29323).
T3 sequence (whole entry): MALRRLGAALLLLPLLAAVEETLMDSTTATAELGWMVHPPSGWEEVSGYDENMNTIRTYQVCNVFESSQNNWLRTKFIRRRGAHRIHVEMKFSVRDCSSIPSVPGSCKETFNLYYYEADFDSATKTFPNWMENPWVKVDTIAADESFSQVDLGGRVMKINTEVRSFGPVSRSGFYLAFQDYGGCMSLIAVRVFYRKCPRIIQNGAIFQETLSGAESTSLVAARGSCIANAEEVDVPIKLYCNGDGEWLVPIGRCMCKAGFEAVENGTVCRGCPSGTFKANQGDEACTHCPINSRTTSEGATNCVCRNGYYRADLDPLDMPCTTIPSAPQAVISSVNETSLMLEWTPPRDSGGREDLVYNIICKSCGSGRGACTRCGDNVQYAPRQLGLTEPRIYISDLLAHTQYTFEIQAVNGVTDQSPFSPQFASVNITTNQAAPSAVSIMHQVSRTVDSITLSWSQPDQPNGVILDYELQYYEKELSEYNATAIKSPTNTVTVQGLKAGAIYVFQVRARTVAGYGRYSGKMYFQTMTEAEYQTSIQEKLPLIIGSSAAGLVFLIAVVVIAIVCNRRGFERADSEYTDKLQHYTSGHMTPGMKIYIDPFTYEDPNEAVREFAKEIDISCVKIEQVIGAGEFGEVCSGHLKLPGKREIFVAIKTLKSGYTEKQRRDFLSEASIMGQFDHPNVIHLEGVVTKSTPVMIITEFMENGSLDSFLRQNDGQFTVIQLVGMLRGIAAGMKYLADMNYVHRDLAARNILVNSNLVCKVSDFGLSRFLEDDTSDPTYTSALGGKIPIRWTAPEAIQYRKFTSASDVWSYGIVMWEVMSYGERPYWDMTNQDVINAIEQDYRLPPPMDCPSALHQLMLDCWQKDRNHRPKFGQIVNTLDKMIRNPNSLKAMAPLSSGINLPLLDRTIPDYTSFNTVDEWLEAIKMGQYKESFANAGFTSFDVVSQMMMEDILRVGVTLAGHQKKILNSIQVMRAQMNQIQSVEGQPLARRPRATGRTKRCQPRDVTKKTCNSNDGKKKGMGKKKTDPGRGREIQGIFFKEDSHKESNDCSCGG
In words: Selectivity interaction (KinomeScan (DiscoverX)) EUB0000618a EPHB2. The following applies: at 10 µM.

Assay [4] addresses T4, Serine/threonine-protein kinase Nek3 (Homo sapiens) (UniProt P51956).
T4 sequence (whole entry): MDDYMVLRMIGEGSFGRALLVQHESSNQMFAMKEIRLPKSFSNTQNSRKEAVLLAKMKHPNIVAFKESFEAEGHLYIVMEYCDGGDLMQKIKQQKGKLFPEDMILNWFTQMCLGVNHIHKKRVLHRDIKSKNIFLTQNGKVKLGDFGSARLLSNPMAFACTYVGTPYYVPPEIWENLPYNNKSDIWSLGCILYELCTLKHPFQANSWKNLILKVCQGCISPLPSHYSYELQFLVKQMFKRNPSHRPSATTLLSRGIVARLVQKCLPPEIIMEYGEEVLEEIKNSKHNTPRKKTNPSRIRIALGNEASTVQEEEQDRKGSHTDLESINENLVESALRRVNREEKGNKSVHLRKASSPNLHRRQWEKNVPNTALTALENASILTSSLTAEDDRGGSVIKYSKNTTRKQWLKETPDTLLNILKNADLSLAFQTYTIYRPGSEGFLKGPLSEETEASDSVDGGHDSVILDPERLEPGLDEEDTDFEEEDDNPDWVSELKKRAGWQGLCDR
Briefly: Selectivity interaction (Upstate Kinase Profiler service (Millipore)) EUB0000056c NEK3. To be noted: at 1 µM.

In turn, `CN(C)C/C=C/C(=O)Nc1ccc(C(=O)N2CCCC(Nc3ncc(Cl)c(-c4c[nH]c5ccccc45)n3)C2)cc1` (centres undefined) gave a % of control in assay [1] of 92%.
In the case of `Cc1cc(F)c(C(=O)Nc2cccc(-c3nncn3C(C)C)n2)cc1-n1cnc(C2CC2)c1`, the % of control in assay [2] is 86%.
Consider `O[C@H]1CC[C@H](Nc2ncc3nc(Nc4c(F)cc(F)cc4F)n([C@H]4CCOC4)c3n2)CC1`, for which, in assay [3], the % of control stood at 72%.
`Cc1ccc(-c2ccc3c(ccc4sc5c(c43)NC[C@@H](C)NC5=O)n2)cn1`: the % of inhibition in assay [4] was found to be 6%.
